According to US20120237441A9, “ENHANCED B CELL CYTOTOXICITY OF CDIM BINDING ANTIBODY” (priority 2003, published 2012):
Several values for one entry are separate records, joined by “and”; a condition that tells them apart may be missing. Equal values may be shown once.

How the values were obtained:
[1] = system: SUP B15; assay: In vitro cytotoxicity of mAb216 in combination with chemotherapeutic agents; format: cell-based; conditions: 48 h; for % change in live cells: versus control
Procedure: (§1) Three cell lines which have been derived from ALL blasts of different genotype and phenotype, Nalm 6, REH, and SUPB15, were incubated with mAb 216 alone or in combination with vincristine (VCR), for 48 hours at 37° C.
(§2) In vitro cytotoxicity of mAb216 in combination with single chemotherapeutic agents was tested. Three cell lines which have been derived from ALL blasts of different genotype and phenotype, Nalm 6, REH, and SUPB 15, were incubated with mAb 216 alone or in combination with vincristine (VCR), daunorubicin (DNR), or L-asparaginase (ASPR).

[2] = system: Reh; assay: as above; format: cell-based, human; conditions: 48 h; for % change in live cells: versus control
Procedure: as §1, §2

[3] = system: Nalm 6; assay: as above; format: cell-based, human; conditions: for Live cells ×10^5 / % change in live cells: 48 h; for % change in live cells: versus control
Procedure: as §1, §2

[4] = system: Nalm-6 cells; assay: Cell viability assay using PI staining and forward scatter; format: cell-based, human; conditions: for viability: cytochalasin 5 μgs/ml or jasplakinolide 3 μgs/ml for 2 hr, then control antibodies; for effect of caspase inhibitor on cell viability: 10 μM for 2 hr at 37° C. before treatment with mAb 216
Procedure: The integrity of the plasma membrane was assessed by the ability of cells to exclude propidium iodide (PI, Sigma, St. Louis, Mo.). The level of PI incorporation was quantitated by flow cytometry on FACScan (Becton-Dickinson, San Jose Calif.) interfaced with VersatermPro and FlowJo software at Stanford's FACS facility. PI-negative cells with normal size as measured by forward scatter signals were considered live cells.
Briefly, cells were treated as specified in each experiment and resuspended in PBS with 3% FCS and 10 μgs/ml of PI. In experiments where toxicity was evaluated in Ca-free medium, cells were resuspended in appropriate media with or without calcium to which 10 μgs/ml PI was added. Since previous studies have shown that mAb 216-mediated toxicity is remarkably pronounced at lower temperatures (Bhat, N. M., et al. (1996) Clin. Exp. Immunol. 105:183), precautions were taken to keep all media and cells at 37° C. and the centrifuge at room temperature.
Cytochalasin was obtained from Sigma and jasplakinolide was obtained from Molecular Probes (Eugene, Oreg.). Caspase inhibitors, Ac-IETD-CHO and Ac-DEVD-CHO were obtained from PharMingen (San Diego, Calif.). Nalm-6 cells (1×10^6 cells/ml) were treated with jasplakinolide (3 μgs/ml), cytochalasin (5 μgs/ml), or caspase inhibitors (10 μM) for 2 hr at 37° C. before treatment with mAb 216. Control samples with equivalent amounts of DMSO were set in parallel. Cells were then exposed to 25 μg of mAb 216 or control Ab and analyzed by flow cytometry.
Since exocytosis of lysosomes is known to be a calcium dependent phenomenon (Miyake, K., and P. L. McNeil (1995) J. Cell Biol. 131:1737; Bi, G. Q., et al. (1995) J. Cell Biol. 131:1747), membrane wounding by mAb 216 nd repair of the wound was tested in calcium free and normal calcium conditions. The cell viability of Nalm-6 cells when treated with two VH4-34 encoded mAbs, mAb 216 at 50, 25 and 12.5 ng/ml concentrations, and Y2K at 50 ng/ml, was tested in the presence of media with and without calcium.
Brefeldin-A was obtained from Sigma. Nalm-6 cells (1×10^6 cells/ml) were treated with BFA (25 μg/ml) for 2 hr at 37° C. before treatment with mAb 216. Control samples with equivalent amounts of DMSO were set in parallel. Cells were then exposed to 25 μg of mAb 216 or control Ab and analyzed by flow cytometry.

CC[C@]1(O)C[C@H]2CN(CCc3c([nH]c4ccccc34)[C@@](C(=O)OC)(c3cc4c(cc3OC)N(C=O)[C@H]3[C@@](O)(C(=O)OC)[C@H](OC(C)=O)[C@]5(CC)C=CCN6CC[C@]43[C@@H]65)C2)C1 [VCR, vincristine]
Live cells ×10^5 ([1]; VCR 2 ng/ml): 2.8 ×10^5
% change in live cells ([1]; VCR 2 ng/ml): 45%
Live cells ×10^5 ([2]; VCR 2 ng/ml): 4.2 ×10^5 and 7.7 ×10^5
Live cells ×10^5 ([3]; VCR 0.2 ng/ml): 13 ×10^5
% change in live cells ([3]; VCR 0.2 ng/ml): 0%
Live cells ×10^5 ([3]; VCR 2 ng/ml): 5 ×10^5
% change in live cells ([3]; VCR 2 ng/ml): 54%
cell death due to vincristine alone ([3]; vincristine 0.2 ng/ml, 48 hours at 37° C.): no cell death occurred

cytochalasin
viability [4]: did not show a decrease in viability

Ac-DEVD-CHO
effect of caspase inhibitor on cell viability [4]: did not alter cell viability

C[C@H]1CCC/C=C/[C@@H]2C[C@H](O)C[C@H]2[C@H](O)/C=C/C(=O)O1 [BFA, Brefeldin A]
viability of cells treated with control antibodies ([4]; BFA 25 μg/ml for 2 hr): no effect

C/C1=C\[C@H](C)C[C@H](C)OC(=O)C[C@H](c2ccc(O)cc2)NC(=O)[C@@H](Cc2c(Br)[nH]c3ccccc23)N(C)C(=O)[C@H](C)NC(=O)[C@@H](C)C1 [jasplakinolide]
viability [4]: did not show a decrease in viability

Ac-IETD-aldehyde
effect of caspase inhibitor on cell viability [4]: did not alter cell viability

COc1cccc2c1C(=O)c1c(O)c3c(c(O)c1C2=O)C[C@@](O)(C(C)=O)C[C@@H]3O[C@H]1C[C@H](N)[C@H](O)[C@H](C)O1 [DNR, daunorubicin]
Live cells ×10^5 ([1]; DNR 4 ng/ml): 0.44 ×10^5
% change in live cells ([1]; DNR 4 ng/ml): 91%
Live cells ×10^5 ([2]; DNR 5 ng/ml): 4.5 ×10^5
% change in live cells ([2]; DNR 5 ng/ml): 65%
Live cells ×10^5 ([3]; DNR 5 ng/ml): 4.3 ×10^5 and 4.5 ×10^5
% change in live cells ([3]; DNR 5 ng/ml): 47% and 59%

B1: L-asparaginase (protein, UniProt P00805 23-348, looked up)
L-asparaginase 2: LPNITILATGGTIAGGGDSATKSNYTVGKVGVENLVNAVPQLKDIANVKGEQVVNIGSQDMNDNVWLTLAKKINTDCDKTDGFVITHGTDTMEETAYFLDLTVKCDKPVVMVGAMRPSTSMSADGPFNLYNAVVTAADKASANRGVLVVMNDTVLDGRDVTKTNTTDVATFKSVNYGPLGYIHNGKIDYQRTPARKHTSDTPFDVSKLNELPKVGIVYNYANASDLPAKALVDAGYDGIVSAGVGNGNLYKSVFDTLATAAKTGTAVVRSSRVPTGATTQDAEVDDAKYGFVASGTLNPQKARVLLQLALTQTKDPQQIQQIFNQY
Live cells ×10^5 ([1]; ASPR 0.8 U/ml): 3 ×10^5
% change in live cells ([1]; ASPR 0.8 U/ml): 47%
Live cells ×10^5 ([2]; ASPR 0.8 U/ml): 6.2 ×10^5
% change in live cells ([2]; ASPR 0.8 U/ml): 35%
Live cells ×10^5 ([3]; ASPR 0.8 U/ml): 9.2 ×10^5
% change in live cells ([3]; ASPR 0.8 U/ml): 23%
